According to ChEMBL document CHEMBL4219123, “Synthesis of new analogs of tetraiodothyroacetic acid (tetrac) as novel angiogenesis inhibitors for treatment of cancer” (Bioorg Med Chem Lett, 2018):
Active and inactive are the calls of the source. No cut-off for these calls is given here.

The molecules below were run on Mus musculus (assay: Antiangiogenic activity in C57/B6 mouse injected with matrigel containing murine vascular growth factor assessed as reduction in hemoglobin content in matrigel plug at 10ug/10ull to 200 uL matrigel administered subcutaneously measured after 14 days by spectrophotometry-based Drabkin method).
Type: functional, organism-based
`O=C(O)Cc1cc(I)c(Oc2cc(I)c(OCCCc3ccccc3)c(I)c2)c(I)c1` was tested, and the Activity was “Active”. In the case of `O=C(O)Cc1cc(I)c(Oc2cc(I)c(OCCCN3C(=O)c4ccccc4C3=O)c(I)c2)c(I)c1`, the Activity is reported as “Active”. With `O=C(O)Cc1cc(I)c(Oc2cc(I)c(OCCN3C(=O)c4ccccc4C3=O)c(I)c2)c(I)c1` the Activity was “Active”. For `C#CCOc1c(I)cc(Oc2c(I)cc(CC(=O)O)cc2I)cc1I`, the Activity was “Active”. `O=C(O)Cc1cc(I)c(Oc2cc(I)c(OCc3cccnc3)c(I)c2)c(I)c1` was tested, and the Activity was “Active”. In the case of `O=C(O)Cc1cc(I)c(Oc2cc(I)c(O)c(I)c2)c(I)c1`, the Activity is reported as “Active”.
